Source: patent US8034574B2, “Screening method for prokinetic agent” (Astellas Pharma Inc., priority 2006, dated 2011)
“Also recorded” adds a separate entry of the source.

Tests used:
[1] = test system: dog digestive tract movement; experiment: Dog digestive tract movement by strain gauge force transducer method
[2] = test system: mouse ileum loop water secretion; experiment: Mouse gut water secretion (ileum loop); type: in vivo; conditions: 6 hours; for water secretion from the gut: mouse ileum loop, 10, 100, 1,000 μg
Experimental: Mice (ddy, male, 35-42 g, SLC), fasted overnight, were anesthetized with pentobarbital (50 mg/kg i.p.) and laparotomized, and ileum tissue about 2 cm in the vicinity of the cecum was ligated with a thread at both ends to prepare an ileum loop. […] After the administration, the gut was returned to the original position, and the abdominal muscle and the skin were sutured. Six hours after the treatment, each mouse was killed by cervical dislocation, after which the ileum loop was extirpated, and the content was weighed.

RIN14B cells = experiment: Serotonin secretion from RIN14B cells (immunoassay); type: cell-based, rat; conditions: 20 minutes culture
Experimental: After RIN14B cells in culture in a Petri dish were detached using a PBS containing 1 mM EDTA, they were sown to a 96-well plate and cultured for 2 days. The medium used was RPMI1640 (Invitrogen Japan K.K.) supplemented with 10% fetal bovine serum (ICN), 100 U/ml penicillin, and 100 μg/ml streptomycin. After the cells were once washed with Hanks' Balanced Salt Solutions (HBSS, Invitrogen) supplemented with 0.1% BSA and 10 μM fluoxetine (TOCRIS), each TRPA1 activator, previously diluted/prepared with the above-described HBSS, was added, and the RIN14B cells were cultured at 37° C. in the presence of 5% CO2 for 20 minutes. After the cultivation, the cell supernatant was recovered, and stored under freezing. The serotonin content in the supernatant was measured using a commercially available serotonin immunoassay kit (Beckman).

[3] = target: T1, human TRPA1 (polypeptide of SEQ ID NO:2) (Homo sapiens, UniProt O75762, K186N/R3C/R58T); experiment: Intracellular calcium by FLIPR in CHO-K1 cells expressing human TRPA1 (activator screening); type: cell-based; conditions: CHO-K1 cells expressing human TRPA1; FLIPR, Fluo3-AM
T1 construct: expressed in transfected cells; host or cells: CHO-K1 cells, transient transfection of the pcDNA3.1(+) human TRPA1 vector
T1 sequence (O75762 whole entry R3C/R58T/K186N): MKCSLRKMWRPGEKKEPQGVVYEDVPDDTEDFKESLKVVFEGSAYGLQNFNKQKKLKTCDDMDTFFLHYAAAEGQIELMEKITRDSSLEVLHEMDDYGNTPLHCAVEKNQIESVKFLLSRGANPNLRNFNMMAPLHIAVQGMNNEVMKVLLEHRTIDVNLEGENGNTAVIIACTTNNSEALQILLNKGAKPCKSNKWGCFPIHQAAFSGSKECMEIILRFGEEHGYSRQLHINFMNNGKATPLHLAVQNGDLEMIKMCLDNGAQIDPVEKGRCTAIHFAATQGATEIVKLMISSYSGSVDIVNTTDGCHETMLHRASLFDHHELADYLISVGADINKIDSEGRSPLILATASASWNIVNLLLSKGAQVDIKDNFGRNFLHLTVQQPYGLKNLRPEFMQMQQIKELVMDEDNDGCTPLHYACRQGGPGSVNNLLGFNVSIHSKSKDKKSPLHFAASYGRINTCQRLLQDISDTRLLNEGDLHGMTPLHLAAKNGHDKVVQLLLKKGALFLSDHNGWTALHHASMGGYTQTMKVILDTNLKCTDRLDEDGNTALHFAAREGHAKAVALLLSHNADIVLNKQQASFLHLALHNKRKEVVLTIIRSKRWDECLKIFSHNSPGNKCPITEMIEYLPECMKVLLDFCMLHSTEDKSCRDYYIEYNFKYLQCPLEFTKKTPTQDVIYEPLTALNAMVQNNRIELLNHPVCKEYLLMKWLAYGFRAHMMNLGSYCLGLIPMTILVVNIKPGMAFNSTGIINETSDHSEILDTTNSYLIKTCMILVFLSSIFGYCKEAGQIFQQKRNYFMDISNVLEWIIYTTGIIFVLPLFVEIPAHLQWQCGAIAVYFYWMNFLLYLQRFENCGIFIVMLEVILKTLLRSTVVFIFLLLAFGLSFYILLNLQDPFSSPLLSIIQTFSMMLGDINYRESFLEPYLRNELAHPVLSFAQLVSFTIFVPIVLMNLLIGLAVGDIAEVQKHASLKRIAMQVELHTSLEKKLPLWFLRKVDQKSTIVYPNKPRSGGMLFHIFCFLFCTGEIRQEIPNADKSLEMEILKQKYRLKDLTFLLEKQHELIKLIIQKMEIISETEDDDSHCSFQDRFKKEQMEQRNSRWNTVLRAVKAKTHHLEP
Experimental: To detect the TRPA1 channel activity of a polypeptide consisting of the amino acid sequence shown by SEQ ID NO:2, the expression vector obtained in Example 1 above was transfected to animal cells, whereby the aforementioned protein was expressed.
Various test samples were added to CHO-K1 cells forced to is transiently express TRPA1 by the transfection operation of Example 2 above, and the resulting changes in intracellular calcium concentration were measured using FLIPR (Molecular Device).
To measure the changes in intracellular calcium concentration by FLIPR, the following pre-treatment was performed. First, an assay buffer for adding the fluorescent dye Fluo3-AM (DOJIN) to the cells, or for washing the cells just before performing the FLIPR assay, was prepared. To a solution prepared by adding 20 ml of 1M HEPES (pH 7.4) (Invitrogen) to 1000 ml of HBSS (Invitrogen) (hereinafter, HBSS/HEPES solution), 10 ml of a solution prepared by dissolving 710 mg of probenecid (Sigma) in 5 ml of 1N NaOH and then adding 5 ml of the HBSS/HEPES solution, was added and mixed, and this solution was used as the assay buffer. Next, 50 μg of Fluo3-AM was dissolved in 22 μl of DMSO (DOJIN), and an equal volume of 20% pluronic acid (Molecular Probes) was added and mixed, after which this mixture was added to 10.6 ml of the assay buffer supplemented with 105 μl of fetal bovine serum, whereby a fluorescent dye solution was prepared. […] After this pretreatment was performed, changes in intracellular calcium concentration after addition of the various test samples were measured with the FLIPR.
Compounds that activate a polypeptide consisting of the amino acid sequence shown by SEQ ID NO:2 (activators) were screened for. As an index of activation, calcium inflow in the cells was detected using a calcium-sensitive fluorescent reagent; specifically, the method described in Example 3 was used.

**Q.** What does the source list for C=CCN=C=S [allyl isothiocyanate]?
**A.** induction of GMC ([1]; oral): induced GMC; time after administration to induction of colon GMC (Giant migrating contraction) ([1]; oral, 1, 10 mg/kg): ≤ 10 min; stomach movement ([1]; oral, just after administration): accentuated stomach movement just after administration; water secretion accentuating action, 1,000 μg dose group ([2]; mouse ileum loop, 1,000 μg): significant water secretion accentuating action observed; water secretion from the gut [2]: dose-dependently accentuated water secretion from the gut; water secretion from the gut ([2]; listed as Allyl isothiocyanate): concentration-dependently accentuated water secretion compared to the vehicle control; serotonin secretion from RIN14B cells (RIN14B cells): serotonin secretion was promoted; also recorded: concentration-dependently promoted the release of serotonin; change in intracellular calcium concentration [3]: responded specifically (elevation of intracellular calcium concentration)
